Columns and labels:
Type in all cases: cell-based
[1] = system: BCR-ABL-expressing B-lineage acute lymphoblastic leukemia cells dependent on Bcl-2; test: BH3 profiling, mitochondrial depolarization (JC-1) in permeabilized cells; conditions: BH3 profiling fits Bcl-2, sigmoidal dose-response (variable slope); for Bottom (best-fit value): constrained (Bottom < 5 or 0 < Bottom < 5); for Top (best-fit value): constrained (Top > 78 or Top < 100); for LogEC50 (best-fit value): x = Log [Peptide] M, fits ambiguous or hit constraint
Protocol: We tested our designed peptides for Bfl-1 selective targeting by carrying out BH3 profiling of cells with known dependencies on anti-apoptotic proteins. In this assay, peptides are titrated into permeabilized cells, and mitochondrial depolarization is measured using the voltage-sensitive dye JC-1 (Figure 7A) ([Deng et al., 2007]). We tested the apoptotic sensitivity of BCR-ABL-expressing B-lineage acute lymphoblastic leukemia cell lines engineered to depend on Bcl-2, Bcl-xL, Mcl-1 or Bfl-1 overexpression for survival ([Koss et al., 2016]). […] EC50 values for inducing mitochondrial permeabilization in the engineered cell lines agreed well with trends in Bfl-1-binding affinities, as expected based on the mechanism of action (Figure 7C).
The creation and characterization of the BCR-ABL-expressing B-lineage acute lymphoblastic leukemia suspension cell lines with engineered dependencies on human versions of anti-apoptotic genes is detailed in [Koss et al. (2016)]). Cells were grown in RPMI (Life Technologies, Carlsbad, CA) with 10% fetal bovine serum, 2 mM L-glutamine, 10 mL/L 100x Pen/Strep (Life Technologies # 15140122), 25 mM HEPES and 10 mL/L 100x NEAA (Life Technologies, 11140050). The adherent cell lines PC-3 (RRID: CVCL_0035) and SF295 (RRID: CVCL_1690) are from the NCI60 panel ([Lorenzi et al., 2009]) and were grown in RPMI (Life Technologies) with 10% fetal bovine serum, 2 mM L-glutamine and 10 mL/L 100x Pen/Strep (Life Technologies # 15140122 ). Cell line identities were confirmed by STR profiling. The Lookout Mycoplasma PCR detection kit (Sigma) was used to detect mycoplasma infection. Mycoplasma was only detected in the PC-3 cell line, and internal controls were used to account for this phenotype.
(§1) Peptides were titrated by serial dilution in MEB buffer (150 mM Mannitol, 10 mM HEPES-KOH pH 7.5, 50 mM KCl, 0.02 mM EGTA, 0.02 mM EDTA, 0.1% BSA and 5 mM Succinate) containing 20 μg/mL oligomycin, 50 μg/mL digitonin, 2 μM JC-1 and 10 mM 2-mercaptoethanol in 384-well plates. Controls for no depolarization (1% DMSO) and complete depolarization with the mitochondrial oxidative phosphorylation uncoupler FCCP (20 μM) were included for data normalization. Cells were suspended at 1.67 × 10^6 cells/mL in MEB. 15 μL of cell suspension was added to each well containing 15 μL of treatment solution. Fluorescence emission was measured every 5 min for 3 hr at 590 nM with 525 nm excitation on a Tecan Safire2. To produce percent depolarization, the area under the resultant curve was calculated and normalized to the assay controls. Peptide titration curves were fit to sigmoidal dose-response curves using Graphpad PRISM seven to obtain EC50 values.

PC-3 cells = test: iBH3, cytochrome c release in unprimed cells (BAK/BAX activator function); conditions: for peptide concentration leading to cytochrome c release in unprimed cells: PC-3, unprimed, iBH3, 25°C, 1 hr; for LogEC50 (best-fit value) / HillSlope (best-fit value) / Bottom (best-fit value) / Top (best-fit value): iBH3 fit PC-3, sigmoidal dose-response (variable slope); for LogEC50 (best-fit value): log of EC50, x axis Log [Peptide M]; for Bottom (best-fit value) / Top (best-fit value): fit of 4 replicates
Protocol: To test the possibility that FS1, FS2 or FS3 may directly activate BAK and BAX, we measured cytochrome c release in two ‘unprimed’ cell lines (PC-3 and SF295). Unprimed cells require BAK/BAX activators to release cytochrome c ([Certo et al., 2006]).
(§2) Cell line identities were confirmed by STR profiling.
Plates were incubated at 25°C for 1 hr.

[2] = system: BCR-ABL-expressing B-lineage acute lymphoblastic leukemia cells dependent on Mcl-1; test: BH3 profiling, mitochondrial depolarization (JC-1) in permeabilized cells; conditions: BH3 profiling fits Mcl-1, sigmoidal dose-response (variable slope); for Top (best-fit value): constrained (Top < 100 or Top > 78); for LogEC50 (best-fit value): x = Log [Peptide] M, fits hit constraint or ambiguous
Protocol: as §2
as §1, with “Cells were suspended at 1.67 × 10^6 cells/mL in MEB.” left out, “Fluorescence emission was measured every 5 min for 3 hr at 590 nM with 525 nm excitation on a Tecan Safire2.” left out

Row | Substance | HillSlope (best-fit value) [1] | Bottom (best-fit value) [1] | Top (best-fit value) [1] | LogEC50 (best-fit value) [1] | peptide concentration leading to cytochrome c release in unprimed cells (PC-3 cells) | LogEC50 (best-fit value) (PC-3 cells) | HillSlope (best-fit value) (PC-3 cells) | Bottom (best-fit value) (PC-3 cells) | Top (best-fit value) (PC-3 cells) | HillSlope (best-fit value) [2] | Bottom (best-fit value) ([2]; constrained (0 < Bottom < 5 or Bottom < 5)) | Top (best-fit value) [2] | LogEC50 (best-fit value) [2]
1 | Ac-QWIREIAAGLRRFADILNAQVER-NH2 [FS3] | 1.964 | ~ 5 | ~ 100 | -5.077 | 30 to 100 µM | -4.638 | 2.225 | 0.07242 | 1.062 | 0.8379 | 4.876 | ~ 100 | -5.183
2 | Ac-QWVREIAAGLRLAADNVNAQLER-NH2 [FS1] | 0.3224 | ~ 5 | ~ 78 | ~ -2.821 | > 100 µM | ~ -3.754 | ~ -10.78 | ~ -63.64 | 0.1 | 0.346 | – | 99.39 | -4.985
3 | Ac-QWVREIAAGLRRAADDVNAQVER-NH2 [FS2] | 1.067 | ~ 5 | ~ 100 | -4.482 | > 100 µM | – | – | – | – | 0.4032 | – | ~ 100 | -4.604
